Results reported in paper PMC9743092, “Membrane-Active Cyclic Amphiphilic Peptides: Broad-Spectrum Antibacterial Activity Alone and in Combination with Antibiotics” (Journal of Medicinal Chemistry, 2022).
Values after ≈ are worked out from the molar mass of the structure shown. Where two headings read alike, the source gives them in different places. Peptide text beside a SMILES is read from it.

Assays:
[1] = system: P. aeruginosa (ATCC 27883); design: MIC P. aeruginosa: unit not given beside the values; conditions: for MIC P. aeruginosa: supplementary csv, unit not given
[2] = system: K. pneumoniae (ATCC BAA-1705); test: Synergistic checkerboard assay; conditions: for MIC: Klebsiella pneumoniae, ATCCBAA1705, read-out: MIC antibiotic alone
Procedure: (§1) This study aimed to compare the influence of synergistic combinations on the antibacterial efficacy against the individual peptide or antibiotic. The comparison is represented by the fractional inhibitory concentration index (FICI) value, which classifies the combined impact of the two tested compounds. Selected antibiotics were tested as 11 dose points of two-fold serial dilutions across the assay plate in combination with seven points of two-fold serial dilution of the peptides down the assay plate. Two-fold serial dilutions for antibiotics and peptides were performed individually to determine the MIC value for each tested compound.
(§2) The concentrations of the peptide started from its respective MICs and were then subjected to two-fold serial dilutions (a total of 7 points). […] Antibiotics were tested as 11 points, two-fold serial dilutions across the assay plate (from 1 to 11 columns) in combination with a seven (A–G)-point and two-fold serial dilution of the peptides down the assay plate. […] In column 12 (A–G) down the assay plate, a two-fold serial dilution of the peptide alone was performed.
(§3) The following equation was applied to calculate the FICI: (A)/MICA + (B)/MICB = FICA + FICB = FICI, where (A) and (B) are the MIC of (antibiotic + [peptide]) in combination (in a single well) and MICA and MICB are the MIC of each compound individually. Based on the calculated FICI value, the interaction between combinations was categorized into four prospects synergy, partial synergy, additive or indifference, and antagonism. […] All experiments were performed in triplicate.

[3] = system: P. aeruginosa (ATCC 27883); test: Synergistic checkerboard assay; assay type: cell-based; conditions: Pseudomonas aeruginosa
Procedure: as §1, §2, §3

[4] = system: K. pneumoniae (ATCC BAA-1705); conditions: for MIC K. pneumoniae: supplementary csv, unit not given
[5] = system: K. pneumoniae (ATCC BAA-1705); conditions: 24 h, ≥99.9% kill
[6] = system: P. aeruginosa (ATCC 27883); conditions: 24 h, ≥99.9% kill
E. coli (ATCC 25922) [7] = conditions: 24 h, ≥99.9% kill
[8] = system: human red blood cells (hRBCs); conditions: red cells of human, 2 h
Procedure: The hemolytic activity of all the cyclic peptides was determined using human red blood cells (hRBC) purchased from BioIVT, USA. […] Peptide-induced hemolysis was tested in triplicate by mixing 75 μL of the peptide solution in PBS (two-fold serial dilution) with 75 μL of a 4% (v/v) hRBC suspension in phosphate-buffered saline. The plates were incubated for 2 h at 37 °C without agitation and centrifuged at 1000g for 10 min. Aliquots (100 μL) of the supernatant were transferred to 96-well plates, where hemoglobin release was measured spectrophotometrically at 567 nm. Percent hemolysis was calculated by the following formula: [drawing 1] where A represents the absorbance of the peptide sample at 567 nm and A0 and At represent zero percent and 100% hemolysis determined in phosphate-buffered saline and 1% Triton X-100, respectively.

E. coli (ATCC 25922) [9] = system: E. coli (ATCC 25922); design: MIC E. coli: unit not given beside the values; conditions: supplementary csv, unit not given
MRSA (ATCC BAA-1556) [10] = system: MRSA (ATCC BAA-1556); design: MIC MRSA: unit not given beside the values; conditions: for MIC MRSA: supplementary csv, unit not given
MRSA (ATCC BAA-1556) [11] = test: microbe, parasite or virus in culture; conditions: Staphylococcus aureus
[12] = system: K. pneumoniae (ATCC BAA-1705); test: microbe, parasite or virus in culture; conditions: Klebsiella pneumoniae
[13] = system: P. aeruginosa (ATCC 27883); test: microbe, parasite or virus in culture; conditions: Pseudomonas aeruginosa, ATCC27883, read-out: MIC P. aeruginosa (ATCC 27883)
[14] = system: S. aureus (ATCC BAA-1556); test: Synergistic checkerboard assay; assay type: cell-based; conditions: Staphylococcus aureus
Procedure: as §1, §2, §3

E. coli (ATCC 25922) [15] = test: microbe, parasite or virus in culture; conditions: Escherichia coli
E. coli (ATCC 25922) [16] = test: Synergistic checkerboard assay; assay type: cell-based; conditions: Escherichia coli
Procedure: as §1, §2, §3

[17] = antibiotic alone or physical mixture with peptide (1:1 w/w)
[18] = ATCC27883, checkerboard, read-out: MIC antibiotic alone
[19] = read-out: MIC S. aureus (ATCC BAA-1556)
[20] = ATCCBAA1705, read-out: MIC K. pneumoniae (ATCC BAA-1705)
[21] = ATCC25922, read-out: MIC E. coli (ATCC 25922)
[22] = ATCC25922, read-out: MIC antibiotic alone
[23] = ATCC27883, read-out: MIC antibiotic alone
[24] = ATCCBAA1556, checkerboard, read-out: MIC antibiotic alone
[25] = ATCC25922, checkerboard, read-out: MIC antibiotic alone

SMILES	MIC [2] [µg/mL]	MIC [3, 18] [µg/mL]	MBC K. pneumoniae (ATCC BAA-1705) [5] [µg/mL]	MBC P. aeruginosa (ATCC 27883) [6] [µg/mL]	MBC E. coli (ATCC 25922) (E. coli (ATCC 25922) [7]) [µg/mL]	HC50 [8] [µg/mL]	MIC E. coli (E. coli (ATCC 25922) [9])	MIC P. aeruginosa [1]	MIC K. pneumoniae [4]	MIC MRSA (MRSA (ATCC BAA-1556) [10])	MIC (MRSA (ATCC BAA-1556) [11]; [19]) [µg/mL]	MIC [13] [µg/mL]	further results
CCC[C@@H]1C[C@@H](C(=O)N[C@@H]([C@H]2O[C@H](SC)[C@H](O)[C@@H](O)[C@H]2O)[C@H](C)Cl)N(C)C1 [clindamycin]	512	512	–	–	–	–	–	–	–	–	–	–	MIC P. aeruginosa (ATCC 27883) [1, 17]: 512 µg/mL (≈ 1200 µM); MIC antibiotic alone ([2]; checkerboard): 512 µg/mL; MIC K. pneumoniae (ATCC BAA-1705) [4, 17]: 512 µg/mL (≈ 1200 µM)
N=C(N)NCCC[C@@H]1NC(=O)[C@H](CCCNC(=N)N)NC(=O)[C@H](CCCNC(=N)N)NC(=O)[C@H](Cc2c[nH]c3ccccc23)NC(=O)[C@H](Cc2c[nH]c3ccccc23)NC(=O)[C@H](Cc2c[nH]c3ccccc23)NC(=O)[C@H](Cc2c[nH]c3ccccc23)NC(=O)[C@H](CCCNC(=N)N)NC1=O [compound 1, [R4W4]] (cyclo(RRRRWWWW))	–	–	64 (≈ 46.7 µM)	128 (≈ 93.5 µM)	32 (≈ 23.4 µM)	175	–	–	–	–	–	–	–
N=C(N)NCCC[C@@H]1NC(=O)[C@H](CCCNC(=N)N)NC(=O)[C@H](CCCNC(=N)N)NC(=O)[C@H](CCCNC(=N)N)NC(=O)[C@H](Cc2c[nH]c3ccccc23)NC(=O)[C@H](Cc2c[nH]c3ccccc23)NC(=O)[C@H](Cc2c[nH]c3ccccc23)NC(=O)[C@H](Cc2c[nH]c3ccccc23)NC(=O)[C@H](CCCNC(=N)N)NC(=O)[C@H](CCCNC(=N)N)NC1=O [6a, [R6W4]] (cyclo(RRRRRRWWWW))	–	–	128 (≈ 76.1 µM)	16 (≈ 9.51 µM)	32 (≈ 19 µM)	265	32	16	64	8	–	–	MIC K. pneumoniae (ATCC BAA-1705) ([4]; MgCl2 (1 mM)): 32 µg/mL (≈ 19 µM); MIC K. pneumoniae (ATCC BAA-1705) ([4]; NH4Cl (6 mM)): 32 µg/mL (≈ 19 µM); MIC MRSA (ATCC BAA-1556) (MRSA (ATCC BAA-1556) [10]; CaCl2 (2 mM)): 8 µg/mL (≈ 4.76 µM); MIC MRSA (ATCC BAA-1556) (MRSA (ATCC BAA-1556) [10]; FBS (25%)): 8 µg/mL (≈ 4.76 µM); MIC MRSA (ATCC BAA-1556) (MRSA (ATCC BAA-1556) [10]; FeCl3 (8 µM)): 8 µg/mL (≈ 4.76 µM); MIC MRSA (ATCC BAA-1556) (MRSA (ATCC BAA-1556) [10]; KCl ([…])): 8 µg/mL (≈ 4.76 µM); MIC MRSA (ATCC BAA-1556) (MRSA (ATCC BAA-1556) [10]; MH broth media, absence of salts and serum): 8 µg/mL; MIC MRSA (ATCC BAA-1556) (MRSA (ATCC BAA-1556) [10]; MgCl2 (1 mM)): 4 µg/mL (≈ 2.38 µM); MIC MRSA (ATCC BAA-1556) (MRSA (ATCC BAA-1556) [10]; NH4Cl (6 mM)): 4 µg/mL (≈ 2.38 µM); MIC MRSA (ATCC BAA-1556) (MRSA (ATCC BAA-1556) [10]; NaCl (150 mM)): 8 µg/mL (≈ 4.76 µM)
CN[C@H](CC(C)C)C(=O)N[C@H]1C(=O)N[C@@H](CC(N)=O)C(=O)N[C@H]2C(=O)N[C@H]3C(=O)N[C@H](C(=O)N[C@H](C(=O)O)c4cc(O)cc(O)c4-c4cc3ccc4O)[C@H](O)c3ccc(c(Cl)c3)Oc3cc2cc(c3O[C@@H]2O[C@H](CO)[C@@H](O)[C@H](O)[C@H]2O[C@H]2C[C@](C)(N)[C@H](O)[C@H](C)O2)Oc2ccc(cc2Cl)[C@H]1O [vancomycin]	512	–	–	–	–	–	–	–	–	–	1 (≈ 0.69 µM)	256 (≈ 177 µM)	MIC (MRSA (ATCC BAA-1556) [11]; read-out: MIC MRSA (ATCC BAA-1556)): 1 µg/mL (≈ 0.69 µM); MIC ([12]; ATCCBAA1705, 24 h, read-out: MIC K. pneumoniae (ATCC BAA-1705)): 512 µg/mL (≈ 353 µM); MIC [12, 20]: 512 µg/mL (≈ 353 µM); MIC ([14]; ATCCBAA1556, read-out: MIC antibiotic alone): 1 µg/mL; MIC (E. coli (ATCC 25922) [15]; ATCC25922, 24 h, read-out: MIC E. coli (ATCC 25922)): 256 µg/mL (≈ 177 µM); MIC (E. coli (ATCC 25922) [15]; [21]): 256 µg/mL (≈ 177 µM); MIC (E. coli (ATCC 25922) [16]; [22]): 256 µg/mL; MIC [3, 23]: 256 µg/mL
N=C(N)NCCC[C@@H]1NC(=O)[C@H](CCCNC(=N)N)NC(=O)[C@H](CCCNC(=N)N)NC(=O)[C@H](Cc2c[nH]c3ccccc23)NC(=O)[C@H](Cc2c[nH]c3ccccc23)NC(=O)[C@H](Cc2c[nH]c3ccccc23)NC(=O)[C@H](Cc2c[nH]c3ccccc23)NC(=O)[C@H](Cc2c[nH]c3ccccc23)NC(=O)[C@H](CCCNC(=N)N)NC(=O)[C@H](CCCNC(=N)N)NC1=O [5b, [R5W5]]	–	–	32 (≈ 18.7 µM)	32 (≈ 18.7 µM)	64 (≈ 37.4 µM)	230	16	32	32	4	–	–	–
C[C@H]1COc2c(N3CCN(C)CC3)c(F)cc3c(=O)c(C(=O)O)cn1c23.C[C@H]1COc2c(N3CCN(C)CC3)c(F)cc3c(=O)c(C(=O)O)cn1c23.O [levofloxacin]	64	–	–	–	–	–	–	–	–	–	–	–	MIC (E. coli (ATCC 25922) [16]; [22]): 64 µg/mL; MIC [3, 23]: 1 µg/mL
N=C(N)NCCC[C@@H]1NC(=O)[C@H](CCCNC(=N)N)NC(=O)[C@H](CCCNC(=N)N)NC(=O)[C@H](CCCNC(=N)N)NC(=O)[C@H](Cc2c[nH]c3ccccc23)NC(=O)[C@H](Cc2c[nH]c3ccccc23)NC(=O)[C@H](Cc2c[nH]c3ccccc23)NC(=O)[C@H](Cc2c[nH]c3ccccc23)NC(=O)[C@H](Cc2c[nH]c3ccccc23)NC(=O)[C@H](CCCNC(=N)N)NC(=O)[C@H](CCCNC(=N)N)NC1=O [6b, [R6W5]] (cyclo(RRRRRRWWWWW))	–	–	64 (≈ 34.3 µM)	32 (≈ 17.1 µM)	128 (≈ 68.5 µM)	255	32	16	64	8	–	–	–
N=C(N)NCCC[C@@H]1NC(=O)[C@H](CCCNC(=N)N)NC(=O)[C@H](CCCNC(=N)N)NC(=O)[C@H](Cc2c[nH]c3ccccc23)NC(=O)[C@H](Cc2c[nH]c3ccccc23)NC(=O)[C@H](Cc2c[nH]c3ccccc23)NC(=O)[C@H](Cc2c[nH]c3ccccc23)NC(=O)[C@H](Cc2c[nH]c3ccccc23)NC(=O)[C@H](Cc2c[nH]c3ccccc23)NC(=O)[C@H](CCCNC(=N)N)NC1=O [4c, [R4W6]]	–	–	–	–	–	75	128	128	256	128	–	–	–
CN(C)[C@@H]1C(O)=C(C(N)=O)C(=O)[C@@]2(O)C(O)=C3C(=O)c4c(O)cccc4[C@@](C)(O)[C@H]3C[C@@H]12 [tetracycline]	[…]	32	–	–	–	–	–	–	–	–	0.25 (≈ 0.563 µM)	32 (≈ 72 µM)	MIC [12, 20]: […]; MIC [14, 24]: 0.25 µg/mL; MIC (E. coli (ATCC 25922) [15]; [21]): 8 µg/mL (≈ 18 µM); MIC (E. coli (ATCC 25922) [16]; [25]): 8 µg/mL
N=C(N)NCCC[C@@H]1NC(=O)[C@H](CCCNC(=N)N)NC(=O)[C@H](Cc2c[nH]c3ccccc23)NC(=O)[C@H](Cc2c[nH]c3ccccc23)NC(=O)[C@H](Cc2c[nH]c3ccccc23)NC(=O)[C@H](Cc2c[nH]c3ccccc23)NC(=O)[C@H](Cc2c[nH]c3ccccc23)NC(=O)[C@H](Cc2c[nH]c3ccccc23)NC(=O)[C@H](Cc2c[nH]c3ccccc23)NC(=O)[C@H](CCCNC(=N)N)NC1=O [3e, [R3W7]] (cyclo(RRRWWWWWWW))	–	–	–	–	–	60	256	256	64	256	–	–	–
N=C(N)NCCC[C@@H]1NC(=O)[C@H](CCCNC(=N)N)NC(=O)[C@H](CCCNC(=N)N)NC(=O)[C@H](Cc2c[nH]c3ccccc23)NC(=O)[C@H](Cc2c[nH]c3ccccc23)NC(=O)[C@H](Cc2c[nH]c3ccccc23)NC(=O)[C@H](Cc2c[nH]c3ccccc23)NC(=O)[C@H](Cc2c[nH]c3ccccc23)NC(=O)[C@H](Cc2c[nH]c3ccccc23)NC(=O)[C@H](Cc2c[nH]c3ccccc23)NC(=O)[C@H](CCCNC(=N)N)NC(=O)[C@H](CCCNC(=N)N)NC1=O [5d, [R5W7]] (cyclo(RRRRRWWWWWWW))	–	–	–	–	–	115	>256	>256	>256	>256	–	–	–
Cc1ncc([N+](=O)[O-])n1CCO [metronidazole]	256	32	–	–	–	–	–	–	–	–	32 (≈ 187 µM)	32 (≈ 187 µM)	MIC [14, 24]: 32 µg/mL; MIC K. pneumoniae (ATCC BAA-1705) [4, 17]: 256 µg/mL (≈ 1500 µM)
NC[C@H]1O[C@H](O[C@H]2[C@H](O)[C@@H](O[C@H]3O[C@H](CO)[C@@H](O)[C@H](N)[C@H]3O)[C@H](N)C[C@@H]2N)[C@H](N)C[C@@H]1O [tobramycin]	16	0.5	–	–	–	–	–	–	–	–	0.5 (≈ 1.07 µM)	0.5 (≈ 1.07 µM)	MIC [12, 20]: 16 µg/mL (≈ 34.2 µM); MIC [14, 24]: 0.5 µg/mL; MIC (E. coli (ATCC 25922) [15]; [21]): 8 µg/mL (≈ 17.1 µM); MIC (E. coli (ATCC 25922) [16]; [25]): 8 µg/mL
